Results from ChEMBL document CHEMBL1201862, “PubChem BioAssay data set” (2004).
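96-well plates; 48 h exposure; 5 concentrations. Endpoints by linear interpolation between flanking doses. Not reached: highest tested concentration assigned. The concentration for 50% growth inhibition is given as GI50.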 Calls of active or inactive are those of the source. Rule as the data show it: active = GI50 up to about 1.1 µM and inactive = higher.

Tests used:
Assay in all cases: DTP human tumour cell line panel, 48 h
[1] = system: 786-0
[2] = system: A498
[3] = system: A549
[4] = system: ACHN
[5] = system: BT-549
[6] = system: CAKI-1
[7] = system: CCRF-CEM
[8] = system: COLO 205
[9] = system: DU-145
[10] = system: EKVX
[11] = system: HCC 2998
[12] = system: HCT-116
[13] = system: HCT-15
[14] = system: HL-60
[15] = system: HOP-62
[16] = system: HOP-92
[17] = system: HT-29
[18] = system: Hs-578T
[19] = system: IGROV-1
[20] = system: K562
[21] = system: KM12
[22] = system: LOX IMVI
[23] = system: M14
[24] = system: MCF7
[25] = system: MDA-MB-231
[26] = system: MDA-MB-435
[27] = system: MOLT-4
[28] = system: Malme-3M
[29] = system: NCI-H226
[30] = system: NCI-H23
[31] = system: NCI-H460
[32] = system: NCI-H522
[33] = system: NCI/ADR-RES
[34] = system: OVCAR-3
[35] = system: OVCAR-4
[36] = system: OVCAR-5
[37] = system: OVCAR-8
[38] = system: PC-3
[39] = system: RPMI-8226
[40] = system: RXF 393
[41] = system: SF-268
[42] = system: SF-295
[43] = system: SF-539
[44] = system: SK-MEL-28
[45] = system: SK-MEL-2
[46] = system: SK-MEL-5
[47] = system: SK-OV-3
[48] = system: SN12C
[49] = system: SNB-19
[50] = system: SNB-75
[51] = system: SR
[52] = system: SW-620
[53] = system: T47D
[54] = system: TK-10
[55] = system: U-251
[56] = system: UACC-257
[57] = system: UACC-62
[58] = system: UO-31
[59] = system: MDA-N

Compound: O=C(O)C1=NN(c2ccc(S(=O)(=O)O)cc2)C2(C1)SCC(=O)N2c1nc2ccccc2s1 (centres undefined)
- GI50 [1]: > 100 µM (inactive)
- GI50 [2]: > 100 µM (inactive)
- GI50 [3]: > 100 µM (inactive)
- GI50 [4]: > 100 µM (inactive)
- GI50 [5]: > 100 µM (inactive)
- GI50 [6]: > 100 µM (inactive)
- GI50 [7]: > 100 µM (inactive)
- GI50 [8]: > 100 µM (inactive)
- GI50 [9]: > 100 µM (inactive)
- GI50 [10]: > 100 µM (inactive)
- GI50 [11]: > 100 µM (inactive)
- GI50 [12]: > 100 µM (inactive)
- GI50 [13]: > 100 µM
- GI50 [14]: > 100 µM (inactive)
- GI50 [15]: > 100 µM (inactive)
- GI50 [16]: > 100 µM (inactive)
- GI50 [17]: > 100 µM (inactive)
- GI50 [18]: > 100 µM (inactive)
- GI50 [19]: > 100 µM (inactive)
- GI50 [20]: > 100 µM (inactive)
- GI50 [21]: > 100 µM (inactive)
- GI50 [22]: > 100 µM (inactive)
- GI50 [23]: > 100 µM (inactive)
- GI50 [24]: > 100 µM (inactive)
- GI50 [25]: > 100 µM (inactive)
- GI50 [26]: > 100 µM (inactive)
- GI50 [27]: > 100 µM (inactive)
- GI50 [28]: > 100 µM (inactive)
- GI50 [29]: 5.3 µM (inactive)
- GI50 [30]: > 100 µM (inactive)
- GI50 [31]: > 100 µM (inactive)
- GI50 [32]: > 100 µM (inactive)
- GI50 [33]: > 100 µM (inactive)
- GI50 [34]: > 100 µM (inactive)
- GI50 [35]: > 100 µM (inactive)
- GI50 [36]: > 100 µM (inactive)
- GI50 [37]: > 100 µM (inactive)
- GI50 [38]: > 100 µM (inactive)
- GI50 [39]: > 100 µM (inactive)
- GI50 [40]: > 100 µM (inactive)
- GI50 [41]: > 100 µM (inactive)
- GI50 [42]: > 100 µM (inactive)
- GI50 [43]: > 100 µM (inactive)
- GI50 [44]: > 100 µM (inactive)
- GI50 [45]: > 100 µM (inactive)
- GI50 [46]: > 100 µM (inactive)
- GI50 [47]: > 100 µM (inactive)
- GI50 [48]: > 100 µM (inactive)
- GI50 [49]: > 100 µM (inactive)
- GI50 [50]: > 100 µM (inactive)
- GI50 [51]: > 100 µM (inactive)
- GI50 [52]: > 100 µM (inactive)
- GI50 [53]: > 100 µM (inactive)
- GI50 [54]: > 100 µM (inactive)
- GI50 [55]: > 100 µM (inactive)
- GI50 [56]: > 100 µM (inactive)
- GI50 [57]: > 100 µM (inactive)
- GI50 [58]: > 100 µM (inactive)

Compound: CCCCCCc1cc2cc(C(=O)Nc3ccc(F)cc3)c(=N)oc2cc1O
- GI50 [1]: 3.63 µM (inactive)
- GI50 [2]: 5.05 µM (inactive)
- GI50 [3]: 3.21 µM (inactive)
- GI50 [4]: 2.89 µM (inactive)
- GI50 [5]: 2.66 µM (inactive)
- GI50 [6]: 3.09 µM (inactive)
- GI50 [7]: 1.35 µM (inactive)
- GI50 [8]: 30.8 µM (inactive)
- GI50 [9]: 2.71 µM (inactive)
- GI50 [10]: 3.27 µM (inactive)
- GI50 [11]: 5.37 µM (inactive)
- GI50 [12]: 2.51 µM (inactive)
- GI50 [13]: 2.51 µM
- GI50 [14]: 1.96 µM (inactive)
- GI50 [15]: 3.28 µM (inactive)
- GI50 [17]: 28 µM (inactive)
- GI50 [18]: 0.9 µM (active)
- GI50 [19]: 1.49 µM (inactive)
- GI50 [20]: 1.18 µM (inactive)
- GI50 [21]: 2.92 µM (inactive)
- GI50 [22]: 2.08 µM (inactive)
- GI50 [23]: 2.92 µM (inactive)
- GI50 [24]: 3.09 µM (inactive)
- GI50 [26]: 2.92 µM (inactive)
- GI50 [59]: 3.57 µM (inactive)
- GI50 [27]: 1.93 µM (inactive)
- GI50 [28]: 2.32 µM (inactive)
- GI50 [30]: 1.78 µM (inactive)
- GI50 [31]: 3.51 µM (inactive)
- GI50 [32]: 0.655 µM (active)
- GI50 [33]: 2.67 µM (inactive)
- GI50 [34]: 3.48 µM (inactive)
- GI50 [35]: 2.52 µM (inactive)
- GI50 [36]: 16 µM (inactive)
- GI50 [37]: 1.58 µM (inactive)
- GI50 [38]: 3.37 µM (inactive)
- GI50 [39]: 1.17 µM (inactive)
- GI50 [41]: 0.735 µM (active)
- GI50 [42]: 3.96 µM (inactive)
- GI50 [43]: 2.17 µM (inactive)
- GI50 [44]: 3.27 µM (inactive)
- GI50 [45]: 3.13 µM (inactive)
- GI50 [46]: 1.4 µM (inactive)
- GI50 [47]: 2.58 µM (inactive)
- GI50 [49]: 2.98 µM (inactive)
- GI50 [51]: 2.62 µM (inactive)
- GI50 [52]: 3.25 µM (inactive)
- GI50 [55]: 2.45 µM (inactive)
- GI50 [56]: 3.37 µM (inactive)
- GI50 [57]: 1.92 µM (inactive)
- GI50 [58]: 3.36 µM (inactive)
